Results published in patent US20120046186A1, “Gene Expression Markers for Prediction of Response to Platinum-Based Chemotherapy Drugs” (priority 2010, published 2012).

System: HCT 116 cell line
Test: cDNA overexpression of LTBR and TMEM30A: oxaliplatin IC50, cell viability
Format: cell-based, human
Conditions: 72 h
Description: FIGS. 5A-5C show the validation of genes identified in the siRNA screen for genes regulating sensitivity or resistance to oxaliplatin. The effect of siRNA-silencing or cDNA overexpression on the IC50 of oxaliplatin was expressed as the log2 fold-shift of the mean IC50 of siRNA-treated (or cDNA-overexpressing) cells relative to the mean IC50 of non-silencing siRNA control-treated (or vector-alone) cells. […] Data represent mean±SEM (n=3).
Full-length LTBR and TMEM30A open reading frames were cloned into pCMV-XL4 (Origene, Rockville, Md.) and validated by sequencing. Transfection was performed using Turbofectin 8.0® (Origene, Rockville, Md.) in a 96-well format as per manufacturer's instructions using 100 ng cDNA per well. Following a 4 hr incubation, 10 μl per well of an 11-point, 2-fold serial dilution of oxaliplatin (50 μM maximum) was then added. Assays were performed in triplicate, using the empty pCMV-XL4 vector as negative control, with biological replicates. […] Overexpression of cDNA was validated by qRT-PCR using the High-Capacity cDNA Reverse Transcription Kit® (Life Technologies, Carlsbad, Calif.) and qPCR using the 7900 HT Fast Real-Time PCR System® (Life Technologies, Carlsbad, Calif.) with gene-specific primers (ABI, Carlsbad, Calif.).

With `O=C1[O][Pt]2([NH][C@@H]3CCCC[C@H]3[NH]2)[O]C1=O` [oxaliplatin] the “increase of IC50 of oxaliplatin” value (transient overexpression of full-length LTBR vs empty pCMV-XL4 vector) was over 2 fold and the “increase of IC50 of oxaliplatin” value (transient overexpression of full-length TMEM30A vs empty pCMV-XL4 vector) was over 2 fold.
